# Test system: MV-4-11 cells
# Experiment: Gene expression microarray analysis (Affymetrix PrimeView) and GSEA
# Assay type: cell-based, human
# Design: RFU PODN (11730768_x_at) / Fold change /veh PODN (11730768_x_at) / RFU LINC00158 (11744669_a_at) / Fold change /veh LINC00158 (11744669_a_at) / RFU DUSP10 (11751237_a_at) / Fold change /veh DUSP10 (11751237_a_at) / RFU ID3 (11757404_x_at) / Fold change /veh ID3 (11757404_x_at) / RFU PLEKHG5 (11737974_s_at) / Fold change /veh PLEKHG5 (11737974_s_at) / RFU LRRC4B (11730491_at) / Fold change /veh LRRC4B (11730491_at) / RFU GIMAP4 (11747438_a_at) / Fold change /veh GIMAP4 (11747438_a_at) / RFU KRT8 (11758183_x_at) / Fold change /veh KRT8 (11758183_x_at) / RFU CNN1 (11734310_a_at) / Fold change /veh CNN1 (11734310_a_at) / RFU VPS37D (11726825_at) / Fold change /veh VPS37D (11726825_at) / RFU C10orf10 (11716522_x_at) / Fold change /veh C10orf10 (11716522_x_at) / RFU KIR2DL2 /// KIR2DL4 /// KIR2DL5A /// KIR2DL5B /// KIR2DS1 /// KIR2DS2 /// KIR2DS3 /// KIR2DS4 /// KIR3DL3 /// KIR3DL3 /// KIR3DS1 (11738374_at) / Fold change /veh KIR2DL2 /// KIR2DL4 /// KIR2DL5A /// KIR2DL5B /// KIR2DS1 /// KIR2DS2 /// KIR2DS3 /// KIR2DS4 /// KIR3DL3 /// KIR3DL3 /// KIR3DS1 (11738374_at) / RFU C1QL1 (11718748_at) / Fold change /veh C1QL1 (11718748_at) / RFU TMPRSS4 (11747572_a_at) / Fold change /veh TMPRSS4 (11747572_a_at) / RFU HAMP (11756126_x_at) / Fold change /veh HAMP (11756126_x_at) / RFU RNFT2 (11725882_a_at) / Fold change /veh RNFT2 (11725882_a_at) / RFU NR4A2 (11747474_a_at) / Fold change /veh NR4A2 (11747474_a_at) / RFU ABCC12 (11746883_a_at) / Fold change /veh ABCC12 (11746883_a_at) / RFU TMEM136 (11760407_x_at) / Fold change /veh TMEM136 (11760407_x_at) / RFU CLDN22 /// WWC2 (11732394_at) / Fold change /veh CLDN22 /// WWC2 (11732394_at) / RFU HLA-DPB1 (11760878_x_at) / Fold change /veh HLA-DPB1 (11760878_x_at) / RFU SPINT1 (11716480_a_at) / Fold change /veh SPINT1 (11716480_a_at) / RFU GAP43 (11754022_s_at) / Fold change /veh GAP43 (11754022_s_at) / RFU A4GNT (11735810_at) / Fold change /veh A4GNT (11735810_at) / RFU PRB3 (11715151_x_at) / Fold change /veh PRB3 (11715151_x_at) / RFU TUBB4B (11761932_at) / Fold change /veh TUBB4B (11761932_at) / RFU CAPN14 (11732068_a_at) / Fold change /veh CAPN14 (11732068_a_at) / RFU TMCC2 (11721928_a_at) / Fold change /veh TMCC2 (11721928_a_at) / RFU IRGQ (11745062_a_at) / Fold change /veh IRGQ (11745062_a_at) / RFU FAM174B (11720279_a_at) / Fold change /veh FAM174B (11720279_a_at) / RFU TMPRSS4 (11748680_a_at) / Fold change /veh TMPRSS4 (11748680_a_at) / RFU FAM212B (11763350_a_at) / Fold change /veh FAM212B (11763350_a_at) / RFU PLEKHG5 (11743358_a_at) / Fold change /veh PLEKHG5 (11743358_a_at) / RFU ZSCAN30 (11745921_a_at) / Fold change /veh ZSCAN30 (11745921_a_at) / RFU CMKLR1 (11741424_a_at) / Fold change /veh CMKLR1 (11741424_a_at) / RFU LOC101060620 /// MAPK8IP1 (11723275_at) / Fold change /veh LOC101060620 /// MAPK8IP1 (11723275_at) / RFU SPTSSB (11747773_x_at) / Fold change /veh SPTSSB (11747773_x_at) / RFU PRSS12 (11739890_at) / Fold change /veh PRSS12 (11739890_at) / RFU BIN1 (11741810_x_at) / Fold change /veh BIN1 (11741810_x_at) / RFU WNT11 (11732464_a_at) / Fold change /veh WNT11 (11732464_a_at) / RFU C10orf10 (11716521_a_at) / Fold change /veh C10orf10 (11716521_a_at) / RFU C5orf56 (11738089_at) / Fold change /veh C5orf56 (11738089_at) / RFU CYB561 (11721691_x_at) / Fold change /veh CYB561 (11721691_x_at) / RFU ANKRD19P (11752326_a_at) / Fold change /veh ANKRD19P (11752326_a_at) / RFU OR2T12 /// OR2T33 /// OR2T8 (11738714_s_at) / Fold change /veh OR2T12 /// OR2T33 /// OR2T8 (11738714_s_at) / RFU VCAN (11748164_a_at) / Fold change /veh VCAN (11748164_a_at) / RFU JSRP1 (11732532_at) / Fold change /veh JSRP1 (11732532_at) / RFU KRTAP10-11 (11738290_x_at) / Fold change /veh KRTAP10-11 (11738290_x_at) / RFU MYO3A (11730013_a_at) / Fold change /veh MYO3A (11730013_a_at) / RFU EBF3 (11725865_a_at) / Fold change /veh EBF3 (11725865_a_at) / RFU CAMK2N1 (11719241_x_at) / Fold change /veh CAMK2N1 (11719241_x_at) / RFU C5orf56 (11738088_a_at) / Fold change /veh C5orf56 (11738088_a_at) / RFU OLFML3 (11715873_a_at) / Fold change /veh OLFML3 (11715873_a_at) / RFU LOC100653217 /// NTM (11731650_a_at) / Fold change /veh LOC100653217 /// NTM (11731650_a_at) / RFU MAPK11 (11762145_a_at) / Fold change /veh MAPK11 (11762145_a_at) / RFU FIZ1 (11724087_x_at) / Fold change /veh FIZ1 (11724087_x_at) / RFU OASL (11726364_x_at) / Fold change /veh OASL (11726364_x_at) / RFU SOX15 (11748057_x_at) / Fold change /veh SOX15 (11748057_x_at) / RFU CD79A (11719716_a_at) / Fold change /veh CD79A (11719716_a_at) / RFU HIST1H1D (11736915_at) / Fold change /veh HIST1H1D (11736915_at) / RFU CASKIN2 (11723855_a_at) / Fold change /veh CASKIN2 (11723855_a_at) / RFU LOC730098 (11760151_x_at) / Fold change /veh LOC730098 (11760151_x_at) / RFU OR4N2 (11742367_at) / Fold change /veh OR4N2 (11742367_at) / RFU PRRT2 (11749266_a_at) / Fold change /veh PRRT2 (11749266_a_at) / RFU SNX32 (11753110_a_at) / Fold change /veh SNX32 (11753110_a_at) / RFU CDHR5 (11726645_a_at) / Fold change /veh CDHR5 (11726645_a_at) / RFU RCAN1 (11760418_a_at) / Fold change /veh RCAN1 (11760418_a_at) / RFU FAM167A (11723789_a_at) / Fold change /veh FAM167A (11723789_a_at) / RFU FAM26E (11764081_at) / Fold change /veh FAM26E (11764081_at) / RFU ISYNA1 (11749810_s_at) / Fold change /veh ISYNA1 (11749810_s_at) / RFU ACY1 (11761880_at) / Fold change /veh ACY1 (11761880_at) / RFU 11764098_at / Fold change /veh 11764098_at / RFU SAMD14 (11745864_x_at) / Fold change /veh SAMD14 (11745864_x_at) / RFU NPB (11741838_a_at) / Fold change /veh NPB (11741838_a_at) / RFU TMPRSS6 (11731388_a_at) / Fold change /veh TMPRSS6 (11731388_a_at) / RFU KRTAP10-2 (11738614_at) / Fold change /veh KRTAP10-2 (11738614_at) / RFU ARHGAP8 /// PRR5-ARHGAP8 (11727945_x_at) / Fold change /veh ARHGAP8 /// PRR5-ARHGAP8 (11727945_x_at) / RFU KRTAP5-7 /// NADSYN1 (11734609_at) / Fold change /veh KRTAP5-7 /// NADSYN1 (11734609_at) / RFU RASL12 (11751679_a_at) / Fold change /veh RASL12 (11751679_a_at) / RFU CDKN2B (11736163_a_at) / Fold change /veh CDKN2B (11736163_a_at) / RFU PRF1 (11729649_at) / Fold change /veh PRF1 (11729649_at) / RFU, ZNF638 /// ZNF638-IT1 / Fold change vs veh, ZNF638 /// ZNF638-IT1 / RFU, PANK3 / Fold change vs veh, PANK3 / RFU, SH3YL1 / Fold change vs veh, SH3YL1 / RFU, ZEB2 / Fold change vs veh, ZEB2 / RFU, NRIP1 / Fold change vs veh, NRIP1 / RFU, PTTG1IP / Fold change vs veh, PTTG1IP / RFU, CAPN2 / Fold change vs veh, CAPN2 / RFU, MED14 / Fold change vs veh, MED14 / RFU, SNORA58 / Fold change vs veh, SNORA58 / RFU, C1orf63 / Fold change vs veh, C1orf63 / RFU, LRRFIP1 / Fold change vs veh, LRRFIP1 / RFU, NDUFAF7 / Fold change vs veh, NDUFAF7 / RFU, SLC12A2 / Fold change vs veh, SLC12A2 / RFU, IBTK / Fold change vs veh, IBTK / RFU, ESF1 / Fold change vs veh, ESF1 / Fold change vs veh, TMEM50B / RFU, TAOK1 / Fold change vs veh, TAOK1 / RFU, ACBD3 / Fold change vs veh, ACBD3 / RFU, TMA16 / Fold change vs veh, TMA16 / RFU, RWDD3 / Fold change vs veh, RWDD3 / RFU, BCAT1 / Fold change vs veh, BCAT1 / RFU, EDEM3 / Fold change vs veh, EDEM3 / RFU, TMEM33 / Fold change vs veh, TMEM33 / RFU, WDR75 / Fold change vs veh, WDR75 / RFU, AHCTF1 / Fold change vs veh, AHCTF1 / RFU, TFRC / Fold change vs veh, TFRC / RFU, ZDHHC17 / Fold change vs veh, ZDHHC17 / RFU, NOM1 / Fold change vs veh, NOM1 / RFU, ARL8B / Fold change vs veh, ARL8B / RFU, ZBTB11 / Fold change vs veh, ZBTB11 / RFU, TAMM41 / Fold change vs veh, TAMM41 / RFU, KIAA1704 /// LOC100996395 / Fold change vs veh, KIAA1704 /// LOC100996395 / RFU, ING1 / Fold change vs veh, ING1 / RFU, TRMT61B / Fold change vs veh, TRMT61B / RFU, FUBP3 / Fold change vs veh, FUBP3 / RFU, TP53 / Fold change vs veh, TP53 / RFU, TNKS2 / Fold change vs veh, TNKS2 / RFU, ZFP14 / Fold change vs veh, ZFP14 / RFU, ACTR2 / Fold change vs veh, ACTR2 / RFU, PPP3R1 / Fold change vs veh, PPP3R1 / RFU, PIK3R1 / Fold change vs veh, PIK3R1 / RFU, HNRNPA1 / Fold change vs veh, HNRNPA1 / RFU, RNF170 / Fold change vs veh, RNF170 / RFU, ZNF28 / Fold change vs veh, ZNF28 / RFU, RNGTT / Fold change vs veh, RNGTT / RFU, OGT / Fold change vs veh, OGT / RFU, BRD1 / Fold change vs veh, BRD1 / RFU, MARS / Fold change vs veh, MARS / RFU, ZNF655 / Fold change vs veh, ZNF655 / RFU, FAHD1 / Fold change vs veh, FAHD1 / RFU, BDP1 / Fold change vs veh, BDP1 / RFU, LRRCC1 / Fold change vs veh, LRRCC1 / RFU, ARID1A / Fold change vs veh, ARID1A / RFU, ZNF146 / Fold change vs veh, ZNF146 / RFU, ZNF330 / Fold change vs veh, ZNF330 / RFU, GPN3 / Fold change vs veh, GPN3 / RFU, C9orf123 / Fold change vs veh, C9orf123 / RFU, N4BP2L2 / Fold change vs veh, N4BP2L2 / RFU, ARFIP1 / Fold change vs veh, ARFIP1 / RFU, FAM179B / Fold change vs veh, FAM179B / RFU, BCL10 / Fold change vs veh, BCL10 / RFU, UHRF1BP1L / Fold change vs veh, UHRF1BP1L / RFU, BET1 / Fold change vs veh, BET1 / RFU, CNOT2 / Fold change vs veh, CNOT2 / RFU, ZNF268 / Fold change vs veh, ZNF268 / Fold change vs veh, ZNF507 / RFU, DGCR2 / Fold change vs veh, DGCR2 / RFU, WDSUB1 / Fold change vs veh, WDSUB1 / Fold change vs veh, HSP90B1 /// MIR3652 / RFU, ADSS / Fold change vs veh, ADSS / RFU, GK / Fold change vs veh, GK / RFU, ZNF148 / Fold change vs veh, ZNF148 / RFU, TAF9 / Fold change vs veh, TAF9 / RFU, SLC1A5 / Fold change vs veh, SLC1A5 / RFU, SLMO2 / Fold change vs veh, SLMO2 / RFU, ABCC4 / Fold change vs veh, ABCC4 / RFU, LOC101060439 /// RAP1B / Fold change vs veh, LOC101060439 /// RAP1B / RFU, RFX7 / Fold change vs veh, RFX7 / RFU, GTPBP10 / Fold change vs veh, GTPBP10 / RFU, CNEP1R1 / Fold change vs veh, CNEP1R1 / RFU, BIVM-ERCC5 /// ERCC5 / Fold change vs veh, BIVM-ERCC5 /// ERCC5 / RFU, ILF3 / Fold change vs veh, ILF3 / RFU 11762660_at / Fold change /veh 11762660_at / RFU VCAN (11757783_s_at) / Fold change /veh VCAN (11757783_s_at) / RFU DDX43 (11728927_at) / Fold change /veh DDX43 (11728927_at) / RFU KRT8 (11758188_x_at) / Fold change /veh KRT8 (11758188_x_at) / RFU NKD1 (11759106_at) / Fold change /veh NKD1 (11759106_at) / RFU SRD5A1 (11742802_a_at) / Fold change /veh SRD5A1 (11742802_a_at) / RFU TPSAB1 /// TPSB2 (11721975_s_at) / Fold change /veh TPSAB1 /// TPSB2 (11721975_s_at) / RFU GSTM3 (11746129_a_at) / Fold change /veh GSTM3 (11746129_a_at) / RFU IL23R (11737362_x_at) / Fold change /veh IL23R (11737362_x_at) / RFU TMEM51 (11727254_a_at) / Fold change /veh TMEM51 (11727254_a_at) / RFU PIWIL2 (11732686_x_at) / Fold change /veh PIWIL2 (11732686_x_at) / RFU ORM1 (11744905_x_at) / Fold change /veh ORM1 (11744905_x_at) / RFU CCDC152 (11743942_at) / Fold change /veh CCDC152 (11743942_at) / RFU ECM1 (11717891_a_at) / Fold change /veh ECM1 (11717891_a_at) / RFU IL23R (11748794_a_at) / Fold change /veh IL23R (11748794_a_at) / RFU TNFAIP8L3 (11732012_x_at) / Fold change /veh TNFAIP8L3 (11732012_x_at) / RFU MBOAT4 (11741988_at) / Fold change /veh MBOAT4 (11741988_at) / RFU 11764193_at / Fold change /veh 11764193_at / RFU TMEM53 (11763286_at) / Fold change /veh TMEM53 (11763286_at) / RFU MAGEB2 (11727129_at) / Fold change /veh MAGEB2 (11727129_at) / RFU TMEM200A (11744735_a_at) / Fold change /veh TMEM200A (11744735_a_at) / RFU CCDC152 (11751479_a_at) / Fold change /veh CCDC152 (11751479_a_at) / RFU FAM211A (11726209_a_at) / Fold change /veh FAM211A (11726209_a_at) / RFU RGS16 (11746705_a_at) / Fold change /veh RGS16 (11746705_a_at) / RFU VCAN (11755009_s_at) / Fold change /veh VCAN (11755009_s_at) / RFU RHOB (11743442_s_at) / Fold change /veh RHOB (11743442_s_at) / RFU RGS16 (11720943_a_at) / Fold change /veh RGS16 (11720943_a_at) / RFU RGS16 (11720944_at) / Fold change /veh RGS16 (11720944_at) / RFU, VPS4B / Fold change vs veh, VPS4B / RFU, CREB1 / Fold change vs veh, CREB1 / RFU, DNAJC13 / Fold change vs veh, DNAJC13 / RFU, GNAQ / Fold change vs veh, GNAQ / RFU, CDK5R1 / Fold change vs veh, CDK5R1 / RFU, ZRANB3 / Fold change vs veh, ZRANB3 / RFU, CUL4A / Fold change vs veh, CUL4A / RFU, CCNY / Fold change vs veh, CCNY / RFU, UFL1 / Fold change vs veh, UFL1 / RFU, COG3 / Fold change vs veh, COG3 / RFU, DIAPH2 / Fold change vs veh, DIAPH2 / RFU, SKA2 / Fold change vs veh, SKA2 / RFU, AFF3 / Fold change vs veh, AFF3 / RFU, LMF1 / Fold change vs veh, LMF1 / RFU, IPO11 / Fold change vs veh, IPO11 / RFU, DFFB / Fold change vs veh, DFFB / RFU, FOXP1 / Fold change vs veh, FOXP1 / RFU, CARD8 / Fold change vs veh, CARD8 / RFU, STRN3 / Fold change vs veh, STRN3 / RFU, ADK / Fold change vs veh, ADK / RFU, RASSF2 / Fold change vs veh, RASSF2 / RFU, WIPF1 / Fold change vs veh, WIPF1 / RFU, LARP1B / Fold change vs veh, LARP1B / RFU, RASA1 / Fold change vs veh, RASA1 / RFU, RB1 / Fold change vs veh, RB1 / RFU, PPFIA1 / Fold change vs veh, PPFIA1 / RFU, MAT2A / Fold change vs veh, MAT2A / RFU, CCT5 / Fold change vs veh, CCT5 / RFU, WDR92 / Fold change vs veh, WDR92 / RFU, CUX1 / Fold change vs veh, CUX1 / RFU, TTC7A / Fold change vs veh, TTC7A / RFU, TMEM135 / Fold change vs veh, TMEM135 / RFU, DEPTOR / Fold change vs veh, DEPTOR / RFU, CPM / Fold change vs veh, CPM / RFU, DNAJB6 / Fold change vs veh, DNAJB6 / RFU, CACNA2D3 / Fold change vs veh, CACNA2D3 / RFU, DTX4 / Fold change vs veh, DTX4 / RFU, TFCP2 / Fold change vs veh, TFCP2 / RFU, GMCL1 /// GMCL1P1 / Fold change vs veh, GMCL1 /// GMCL1P1 / RFU, AEBP2 / Fold change vs veh, AEBP2 / RFU, SNHG1 /// SNORD22 /// SNORD25 /// SNORD26 /// SNORD27 /// SNORD28 /// SNORD29 /// SNORD31 / Fold change vs veh, SNHG1 /// SNORD22 /// SNORD25 /// SNORD26 /// SNORD27 /// SNORD28 /// SNORD29 /// SNORD31 / Fold change (Aza/veh), C12orf56 (ProbeSet 11735607_a_at) / Fold change (ACY-1035/veh), C12orf56 (ProbeSet 11735607_a_at) / Fold change (Aza/veh), FGFR1OP (ProbeSet 11751329_s_at) / Fold change (ACY-1035/veh), FGFR1OP (ProbeSet 11751329_s_at) / Fold change (Aza/veh), VPS36 (ProbeSet 11739960_a_at) / Fold change (ACY-1035/veh), VPS36 (ProbeSet 11739960_a_at) / RFU SYPL1 (11715823_x_at) / Fold change /veh SYPL1 (11715823_x_at) / RFU IGFBP7 (11715501_s_at) / Fold change /veh IGFBP7 (11715501_s_at) / RFU REEP3 (11722064_at) / Fold change /veh REEP3 (11722064_at) / RFU IGLL1 (11728026_x_at) / Fold change /veh IGLL1 (11728026_x_at): dose or concentration left out as unconfirmed
# Details: ProbeSet 11760938_a_at; LIST D
compound,measurement,value
Nc1ncn([C@@H]2O[C@H](CO)[C@@H](O)[C@H]2O)c(=O)n1 [azacitidine],"RFU, MAT2A",129.03 RFU
